Source: article PMC8409943, “Study on mechanism of low bioavailability of black tea theaflavins by using Caco-2 cell monolayer” (Drug Delivery, 2021)
Where two headings read alike, the source gives them in different places.

Tests used:
Caco-2 monolayers = experiment: HPLC-MS/MS identification of metabolites in the absorptive transport of Caco-2 monolayers; type: in vitro ADME, Human; conditions: 200 µM, 2 h, AP side or BL side of Caco-2 monolayers
Method: TF3G, TF3’G and TFDG were dissolved in DMSO (≤0.5%), and then, diluted with HBSS. Caco-2 cells were incubated with 200 µM TF3G, TF3’G and TFDG at 37 °C for 2 h. Samples collected from both AP side and BL side were measured by HPLC with MS detection, and the metabolites were determined in terms of the standard TF, TF3G, TF3’G, TFDG, and gallic acid (Table S2).

[1] = Transepithelial transport of theaflavins across Caco-2 cell monolayers, with or without efflux transporter inhibitors; type: in vitro ADME, Human; conditions: human; for recovery at 2 h, 200 μM: Caco-2, Caco-2 monolayers, after 2 h incubation; for efflux ratio at 2 h, 200 μM / Papp A→B at 2 h, 200 μM / Papp B→A at 2 h, 200 μM: 2 h incubation
Method: (§1) For transport studies, Caco-2 cells were seeded at a density of 3 × 10^5 cells per well in Transwell® inserts (polycarbonate membrane, 24 mm i.d., 0.4 μm pore size, Corning Costar Corp., NY, USA) in 6-well plates (Zhang et al., [2004]). […] The inserts were washed twice with HBSS buffer and equilibrated at 37 °C for 30 min. Standard stock solutions of each theaflavin were diluted to 200 μM with HBSS. For absorptive transport, theaflavins in 1.5 mL HBSS was added into the AP side and 2.6 mL HBSS was added into the BL side of all inserts. For secretory transport, 1.5 mL HBSS and 2.6 mL theaflavins in HBSS were added into AP side and BL side, respectively. Samples were collected from the receiving chamber after 0.5, 1, 2, 3, or 4 h incubation and then were lyophilized at −110 °C in a CoolSafe freeze dryer (LaboGene ApS, Bjarkesvej, Denmark) for HPLC analysis. The recovery rate of theaflavins in the transport was calculated from the above Equation (2).
(§2) Prior to transport inhibition experiment, cells were preincubated for 30 min with 100 μM Vep, 100 μM CsA, 100 μM MK-571, or 10 μM FTC in both sides (Vaidyanathan & Walle, [2001]; Wang et al., [2008]). Then, the absorptive and secretory experiments were performed in the presence of inhibitors as described above. Samples were collected from the receiving chamber after 2 h incubation and then were lyophilized at −110 °C for HPLC analysis.
(§3) The apparent permeability coefficient (Papp, cm/s) was calculated as follows: (3) Papp= dQ/dt×V/(A×C0) where dQ/dt is the variation in concentration on the receiving side over time (μM/s); V, the volume of the solution collected from the receiving chamber (cm^3); A, the area of the membrane (4.67 cm^2); C0, the initial concentration of theaflavins in the donor chamber (μM).
(§4) The efflux ratio was calculated as follows: (4) Efflux ratio= Papp(BL−AP)/Papp(AP−BL) where Papp, apparent permeability coefficient; AP-BL, apical to basolateral transport; BL-AP, basolateral to apical transport.

Caco-2 cell monolayers = experiment: as above; type: in vitro ADME, Human; conditions: absorptive transport, 2 h
Method: as §1, §2, §3, §4

MRP2 = experiment: Quantitative real-time PCR, mRNA level of MRP2; type: cell-based, Human; conditions: Caco-2 cells, 200 μM, 2 h, vs control
Method: Cell culture and treatment were performed as described above in 2.6. Total RNA was extracted from Caco-2 cells by the cell RNA extraction kit, and then reverse-transcribed by the cDNA synthesis kit. Gene amplification and quantitative detection were performed as previously described (Ai et al., [2019]). Target mRNA levels were normalized to β-actin mRNA levels. Data were calculated by the 2^−ΔΔCT method.

Caco-2 cells [2] = experiment: Intracellular accumulation of theaflavin monomers; conditions: 200 μM theaflavins, 2 h incubation, 37 °C
Method: Caco-2 cells were seeded at a density of 8 × 10^4 cells per well in 6-well plates (Ni et al., [2020]). After differentiation over a period of 21 days, cells were incubated with 2.0 mL of 200 μM theaflavins at 37 °C. After 2 h incubation, phosphate buffer was added to wash cells in the plate. Then, cell lysates were prepared with RIPA lysis buffer containing 1 mM PMSF as a protease inhibitor and centrifugated at 12,000 rpm for 30 min. Total protein contents were quantified using a BCA estimation kit according to the manufacturer’s instructions (Beyotime). Theaflavins were quantified by HPLC analysis and the intracellular accumulation was expressed as µg theaflavin/mg protein.
Theaflavins were characterized by high performance liquid chromatography (HPLC, Agilent 1100VL, Agilent Technologies Inc., CA, USA). Briefly, samples were extracted with 70% methanol, centrifuged at 685 × g for 10 min, and filtered through a 0.45 μm membrane (Nylon 66). […] Samples were eluted with a gradient of solvent A (100 mL water with 9 mL acetonitrile and 2 mL acetic acid) and B (100 mL acetonitrile with 17.8 mL water and 2 mL acetic acid) as follows: 0–5 min, 95% A; 5–10 min, 90% A; 10–20 min, 70% A; 20–25 min, 65% A; 25–30 min, 70% A; 30–35 min, 100% A. Theaflavins were detected using an ultraviolet detector at a wavelength of 278 nm.

Caco-2 cells [3] = experiment: Cytotoxicity study by CCK-8 method; type: cell-based, Human; conditions: 24 h
Method: Standard stock solutions (1000 μM) of each theaflavin were prepared in 0.1% dimethyl sulfoxide (DMSO) in deionized water, and diluted with fresh DMEM to 100, 200, 300, 400, and 500 µmol/L respectively. Each inhibitor was prepared as instructions. The cytotoxicity of theaflavins and four inhibitors of multidrug resistant associated proteins to Caco-2 cells was examined by CCK-8 method (Song et al., [2014]). Briefly, Caco-2 cells were inoculated onto 96-well microtiter plates at a density of 1 × 10^4 cells per well. After incubation at 37 °C for 24 h, cells were incubated for another 24 h with different concentrations of theaflavins, followed by adding 10 μL CCK-8 solution and 1 h incubation at 37 °C. The absorbance (OD) value was determined at 450 nm using a microplate reader (ELX-800, Bio-Tek Instruments Inc., Winooski, USA). Four inhibitors were used in this study: Vep, inhibitor of P-gp; CsA, inhibitor and substrate of P-gp; MK-571, inhibitor of MRP1, MRP2 and MRP3; FTC, inhibitor of BCRP (Silbermann et al., [1989]; König et al., [1999]; Renes et al., [1999]; Ali et al., [2017]). The cytotoxicity of Vep, CsA, MK-571 or FTC was also determined by CCK-8 assay. […] To determine the effects of inhibitors on the cytotoxicity of theaflavins, cells were incubated with both different theaflavin monomers (100, 200, 300, 400, and 500 μM) and different inhibitors. IC50, the half inhibitory concentration, was calculated from the cell viability. The cell viability was calculated by the following equation: (1) Cell viability (%)=(ODsample− ODblank)/(ODcontrol− ODblank)×100% where ODsample is the absorbance value of cell + sample + complete medium; ODblank, the absorbance value of complete medium; ODcontrol, the absorbance value of cell + complete medium.

[4] = Stability (recovery rate) of theaflavins in HBSS and DMEM in the absence of cells
Method: Standard stock solutions of each theaflavin were diluted with HBSS and DMEM respectively, obtaining final test solutions of 200 μM. The recovery rate of theaflavins in HBSS and in DMEM, in the absence of cells, was analyzed by HPLC after incubation at 37 °C for 0.5, 1, 2, 3, 4, 8, 12, and 24 hours, respectively. The recovery rate was used to measure the stability and calculated as follows: (2) Recovery rate=Ct/C0× 100% where Ct is the final concentration at different incubation time (μM); C0, the initial concentration (μM).
Theaflavins were characterized by high performance liquid chromatography (HPLC, Agilent 1100VL, Agilent Technologies Inc., CA, USA). Briefly, samples were extracted with 70% methanol, centrifuged at 685 × g for 10 min, and filtered through a 0.45 μm membrane (Nylon 66). The separation was performed by an ODS reversed-phase column (4.6 mm i.d.×250 mm, SB-C18, Agilent Technologies Inc., CA, USA) at a flow rate of 0.7 mL/min. Chromatographic conditions were slightly modified according to China National Standard (GB/T 30483-2013, GAQSIQ, P. R. China, 2013). Samples were eluted with a gradient of solvent A (100 mL water with 9 mL acetonitrile and 2 mL acetic acid) and B (100 mL acetonitrile with 17.8 mL water and 2 mL acetic acid) as follows: 0–5 min, 95% A; 5–10 min, 90% A; 10–20 min, 70% A; 20–25 min, 65% A; 25–30 min, 70% A; 30–35 min, 100% A. Theaflavins were detected using an ultraviolet detector at a wavelength of 278 nm.

- conjugated metabolites (glucuronidated, sulfated and methylated) (Caco-2 monolayers): not detected
- recovery at 2 h, 200 μM ([1]; apical to basolateral, read-out: recovery of theaflavins in absorptive transport): 39.8%
- recovery at 2 h, 200 μM ([1]; basolateral to apical, read-out: recovery of theaflavins in secretory transport): 48.9%
- efflux ratio at 2 h, 200 μM ([1]; Caco-2, Papp(BL−AP)/Papp(AP−BL), Ctrl (no inhibitor)): 1.24 ± 0.09
- Papp A→B at 2 h, 200 μM ([1]; Caco-2, absorptive transport, 200 μM theaflavin in HBSS, Ctrl (no inhibitor)): 0.277 ± 0.009 ×10⁻⁶ cm/s
- Papp B→A at 2 h, 200 μM ([1]; Caco-2, secretory transport, 200 μM theaflavin in HBSS, Ctrl (no inhibitor)): 0.342 ± 0.014 ×10⁻⁶ cm/s
- efflux ratio at 2 h, 200 μM ([1]; Caco-2, with 10 μM FTC (BCRP inhibitor), + 10 μM FTC (BCRP inhibitor)): 1.05 ± 0.08
- Papp A→B at 2 h, 200 μM ([1]; Caco-2, with 10 μM FTC (BCRP inhibitor), absorptive transport, + 10 μM FTC (BCRP inhibitor)): 0.31 ± 0.01 ×10⁻⁶ cm/s
- Papp B→A at 2 h, 200 μM ([1]; Caco-2, with 10 μM FTC (BCRP inhibitor), secretory transport, + 10 μM FTC (BCRP inhibitor)): 0.324 ± 0.013 ×10⁻⁶ cm/s
- efflux ratio at 2 h, 200 μM ([1]; Caco-2, with 100 μM CsA (P-gp inhibitor and substrate), + 100 μM CsA (P-gp inhibitor and substrate)): 0.62 ± 0.05
- Papp A→B at 2 h, 200 μM ([1]; Caco-2, with 100 μM CsA (P-gp inhibitor and substrate), absorptive transport, + 100 μM CsA (P-gp inhibitor and substrate)): 0.565 ± 0.019 ×10⁻⁶ cm/s
- Papp B→A at 2 h, 200 μM ([1]; Caco-2, with 100 μM CsA (P-gp inhibitor and substrate), secretory transport, + 100 μM CsA (P-gp inhibitor and substrate)): 0.348 ± 0.014 ×10⁻⁶ cm/s
- efflux ratio at 2 h, 200 μM ([1]; Caco-2, with 100 μM Vep (P-gp inhibitor), + 100 μM Vep (P-gp inhibitor)): 0.73 ± 0.05
- Papp A→B at 2 h, 200 μM ([1]; Caco-2, with 100 μM Vep (P-gp inhibitor), absorptive transport, + 100 μM Vep (P-gp inhibitor)): 0.415 ± 0.014 ×10⁻⁶ cm/s
- Papp B→A at 2 h, 200 μM ([1]; Caco-2, with 100 μM Vep (P-gp inhibitor), secretory transport, + 100 μM Vep (P-gp inhibitor)): 0.301 ± 0.012 ×10⁻⁶ cm/s
- increase of the influx (Caco-2 cell monolayers; with CsA vs control): 2.0 times
- fold increase in the influx (Caco-2 cell monolayers; with MK-571 vs control): 1.47 fold
- fold increase in the influx (Caco-2 cell monolayers; with verapamil vs control): 1.50 fold
- Contents of theaflavins absorbed in Caco-2 cells (Caco-2 cells [2]): -
- degraded due to the structural instability ([4]; 2 h): 9.3%
- Recovery rate in DMEM ([4]; pH 6.0 DMEM without cells, 200 μM, 37 °C, 2 h incubation): < 45%
Compound: O=c1c(O)cc([C@H]2Oc3cc(O)cc(O)c3C[C@H]2O)cc2c([C@H]3Oc4cc(O)cc(O)c4C[C@H]3O)cc(O)c(O)c12 [TF, theaflavin]
- decrease of mRNA (transcriptional) level of MRP2 (MRP2): 38.73%
- IC50 (Caco-2 cells [3]; + CsA): 584 ± 26.9 µM
- IC50 (Caco-2 cells [3]; + FTC): 492 ± 34.2 µM
- IC50 (Caco-2 cells [3]; + MK-571): 463 ± 80.8 µM
- IC50 (Caco-2 cells [3]; + VEP): 517 ± 66.2 µM
- IC50 (Caco-2 cells [3]; Homo sapiens, Ctrl (no inhibitor)): 681 ± 19.2 µM
